Experimental data from publication PMC3499409, “Direct Interaction between EgFABP1, a Fatty Acid Binding Protein from Echinococcus granulosus, and Phospholipid Membranes” (PLoS Neglected Tropical Diseases, 2012).

Key:
Format in all cases: binding
[1] = target: T1, EgFABP1 (Echinococcus granulosus, UniProt Q02970); assay: fluorescence titration of the anthroyloxy fatty acid with protein
T1 construct: gene FABP1; recombinant EgFABP1 from pET11b in E. coli, delipidated

[2] = target: T2, EgFABP1 (Echinococcus granulosus, UniProt Q02970); assay: protection from limited proteolysis (clostripain); GC of co-purified fatty acids
T2 construct: gene FABP1; recombinant EgFABP1 from pET11b in E. coli
T2 sequence (Q02970 1-133): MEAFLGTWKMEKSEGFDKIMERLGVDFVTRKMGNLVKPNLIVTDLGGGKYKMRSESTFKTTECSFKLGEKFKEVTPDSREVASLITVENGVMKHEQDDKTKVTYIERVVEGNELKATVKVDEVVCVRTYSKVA

[3] = target: T2, EgFABP1; assay: near-UV CD change; protection from limited proteolysis (clostripain); GC of co-purified fatty acids

Structure (SMILES)	Kd [1] [nM]	other results
CCCCCCC(CCCCCCCCCCC(=O)O)OC(=O)c1c2ccccc2cc2ccccc12 (stereo not shown) [12AS, 12-(9-anthroyloxy)stearic acid]	120 ± 20	–
O=C(O)CCCCCCCCCCCCCCCOC(=O)c1c2ccccc2cc2ccccc12 [16AP, 16-(9-anthroyloxy)palmitic acid]	13 ± 6	–
CCCCCCCCCCCCCC(=O)O [myristic acid]	–	protection from limited proteolysis (clostripain); GC of co-purified fatty acids [2]: Results show that binding of FAs gives EgFABP1 significant relative protection against cleavage
CCCCCCCC/C=C\CCCCCCCC(=O)O [oleic acid]	–	near-UV CD change; protection from limited proteolysis (clostripain); GC of co-p [3]: the near-UV CD spectra (Figure S1) showed differences upon ligand binding, especially with oleic acid
